In brackets after ≈: the same amount, converted by molar mass. Where a SMILES comes first, the peptide text is derived from it. [ ]: non-standard residue; d: D form. Aib = CC(C)(N)C(=O)O
Key:
[1] = Aqueous solubility of compound vs zinc concentration; format: physicochemical; conditions: aqueous saline, pH 7.0, room temperature
Method: Compounds that may advantageously be used to practice the invention can be and were tested to determine their solubility in pH 7 water at different zinc concentrations using the following procedure.
A stock zinc solution was prepared by dissolving ZnCl2 in de-ionized water to a concentration of 100 mg/ml and adjusting the pH to 2.7 using HCl. Solutions having various ZnCl2 concentrations (“Zn Test Solutions”) were prepared by making appropriate dilutions of the stock solution.
1 mg of the compound of Example 1 was dissolved in 250 μl of each Zn Test Solution to yield a solution having 4 mg/ml of the Example 1 compound. […] The precipitation solution was centrifuged and the mother liquor analyzed using HPLC. The UV absorption area of test compound peak was measured and the concentration of the test compound in the mother liquor was determined via comparison to a calibration curve.
As a representative example of a compound that may be used to practice the invention, the compound of Example 1 was tested in the immediately foregoing assay and the following results were obtained (aqueous saline, pH 7.0, room temperature): […]

[2] = system: adult male Sprague-Dawley rats; assay: In vivo assay G.1/G.2: insulin secretion after iv glucose challenge following sc injection; design: species or system rat; conditions: clear solution pH 4.0 with zinc (Preparation D), sc 75 μg/kg, fasted rats, iv glucose 1 g/kg at 0.25-24 h
Method: The day prior to the experiment, adult male Sprague-Dawley rats (Taconic, Germantown, N.Y.) that weighed approximately 300-350g were implanted with a right atrial jugular cannula under chlorohydrate anesthetic. The rats were then fasted for 18 hours prior to the injection of the appropriate test composition or vehicle control at time 0. The rats continued to be fasted throughout the entire experiment.
At time zero the rats were injected subcutaneously (sc) either with (a) the compound of Example 1 (Aib^8,^35, Arg^26,^34, Phe^31)hGLP-1(7-36)NH2) at pH 4.0 as a clear solution (i.e., the solution of Preparation D.), or (b) the compound of Example 1 at pH 7.0 as a suspension or gel (i.e., the suspension or gel of Preparation E.). […] At the appropriate time after the sc injections a 500 μl blood sample was withdrawn via the intravenous (iv) cannula and the rats were given an iv glucose challenge to test for the presence of enhanced insulin secretion. The times of the glucose challenge were 0.25, 1, 6, 12 and 24 hours post-compound injection. After the initial blood sample was withdrawn glucose (1 g/kg) was injected iv and flushed in with 500 μl heparinized saline (10U/mL). […] The amount of insulin in each sample was determined using a rat insulin enzyme-linked immunosorbant assay (ELISA) kit (American Laboratory Products Co., Windham, N.H.). […]

Compound	solubility ([1]; pH 7, ZnCl2 concentration 0 μg/mL) [µg/mL]	solubility ([1]; pH 7, ZnCl2 concentration 80 μg/mL) [µg/mL]	solubility ([1]; pH 7, ZnCl2 concentration 500 μg/mL) [µg/mL]	solubility ([1]; pH 7, ZnCl2 concentration 1000 μg/mL) [µg/mL]	solubility ([1]; pH 7, ZnCl2 concentration 1500 μg/mL) [µg/mL]	solubility ([1]; pH 7, ZnCl2 concentration 2500 μg/mL) [µg/mL]	duration of sustained insulin-enhancing activity inducible by glucose injection [2] [h]
CC[C@H](C)[C@H](NC(=O)[C@H](Cc1ccccc1)NC(=O)[C@H](CCC(=O)O)NC(=O)[C@H](CCCNC(=N)N)NC(=O)[C@H](C)NC(=O)[C@H](C)NC(=O)[C@H](CCC(N)=O)NC(=O)CNC(=O)[C@H](CCC(=O)O)NC(=O)[C@H](CC(C)C)NC(=O)[C@H](Cc1ccc(O)cc1)NC(=O)[C@H](CO)NC(=O)[C@H](CO)NC(=O)[C@@H](NC(=O)[C@H](CC(=O)O)NC(=O)[C@H](CO)NC(=O)[C@@H](NC(=O)[C@H](Cc1ccccc1)NC(=O)[C@@H](NC(=O)CNC(=O)[C@H](CCC(=O)O)NC(=O)C(C)(C)NC(=O)[C@@H](N)Cc1c[nH]cn1)[C@@H](C)O)[C@@H](C)O)C(C)C)C(=O)N[C@@H](C)C(=O)N[C@@H](Cc1ccccc1)C(=O)N[C@@H](CC(C)C)C(=O)N[C@H](C(=O)N[C@@H](CCCNC(=N)N)C(=O)NC(C)(C)C(=O)N[C@@H](CCCNC(=N)N)C(N)=O)C(C)C [Example 1, (Aib^8,^35, Arg^26,^34, Phe^31)hGLP-1(7-36)NH2] (H-H[Aib]EGTFTSDVSSYLEGQAAREFIAFLVR[Aib]R-NH2)	53.9 (≈ 16.1 µM)	5.9 (≈ 1.76 µM)	5.6 (≈ 1.67 µM)	9.7 (≈ 2.89 µM)	9.7 (≈ 2.89 µM)	11 (≈ 3.28 µM)	–
(Aib^8,35)hGLP1(7-36)NH2	–	–	–	–	–	–	24

From patent publication US7521527B2 (Societe de Conseils de Recherches et d'Applications …, priority 2003, dated 2009)
